Test results published in PubChem BioAssay (NCI).
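Tested at 5 concentrations; 48 h exposure; 96-well plates; endpoints linearly interpolated, else capped at highest concentration. TGI: total growth inhibition.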

Assays:
Test in all cases: DTP human tumour cell line panel, 48 h
[1] = system: 786-0 renal
[2] = system: A549 NSCLC
[3] = system: BT-549 breast
[4] = system: CAKI-1 renal
[5] = system: COLO 205 colon
[6] = system: DU-145 prostate
[7] = system: HCT-15 colon
[8] = system: HT29 colon
[9] = system: LOX IMVI melanoma
[10] = system: MCF7 breast
[11] = system: MDA-MB-435
[12] = system: MOLT-4 leukemia
[13] = system: NCI/ADR-RES ovarian
[14] = system: OVCAR-5 ovarian
[15] = system: SF-539 CNS
[16] = system: SK-MEL-2 melanoma
[17] = system: SK-MEL-5 melanoma
[18] = system: SR leukemia
[19] = system: TK-10 renal
[20] = system: MDA-N

| SMILES | TGI [1] [µM] | TGI [2] [µM] | TGI [3] [µM] | TGI [4] [µM] | TGI [5] [µM] | TGI [6] [µM] | TGI [7] [µM] | TGI [8] [µM] | TGI [9] [µM] | TGI [10] [µM] | TGI [11] [µM] | TGI [12] [µM] | TGI [13] [µM] | TGI [14] [µM] | TGI [15] [µM] | TGI [16] [µM] | TGI [17] [µM] | TGI [18] [µM] | TGI [19] [µM] | TGI [20] [µM] |
| --- | --- | --- | --- | --- | --- | --- | --- | --- | --- | --- | --- | --- | --- | --- | --- | --- | --- | --- | --- | --- |
| CC1=CCC(C)=Nc2nc3ccccc3n21 | > 100 | > 100 | > 100 | > 100 | > 100 | > 100 | > 100 | > 100 | > 100 | > 100 | > 100 | > 100 | > 100 | > 100 | > 100 | > 100 | > 100 | > 100 | > 100 | – |
| COc1ccc(OC)c(C(Cc2ccnc3ccccc23)Cc2ccnc3ccccc23)c1 | > 10 | > 10 | > 10 | > 10 | > 10 | > 10 | > 10 | > 10 | > 10 | > 10 | > 10 | > 10 | > 10 | > 10 | > 10 | > 10 | > 10 | – | > 10 | – |
| COC(=O)C1(C(=O)OC)C/C(C)=C(/C)SCCCS1 | > 100 | > 100 | – | > 100 | > 100 | > 100 | > 100 | > 100 | > 100 | > 100 | > 100 | > 100 | > 100 | > 100 | > 100 | > 100 | > 100 | > 100 | > 100 | > 100 |
| COC(=O)C1=C(C(=O)Nc2cccnc2Cl)N(c2ccc(OC)cc2[N+](=O)[O-])C(c2ccc(C)cc2)=CC1c1ccc(OC)cc1OC (stereo unspecified) | > 87.7 | 40.9 | > 100 | > 100 | 31.9 | > 90.1 | 49.8 | 47.9 | 17 | 22.4 | > 100 | 49.3 | 47.5 | > 84.9 | 16.7 | 65 | > 73.3 | 21.6 | > 64.2 | – |
| Cc1ccccc1N/C(=C(/C(Cl)=C(Cl)Cl)[N+](=O)[O-])n1nnc2ccccc21 | > 100 | > 100 | 27.5 | 34.9 | 29.1 | 62.2 | 31.6 | 35.5 | – | 86.5 | 30.1 | > 100 | 49.5 | 33.6 | 39.1 | 33 | – | – | – | – |
| CC1C[C@]2(C)C(=NCCN)Nc3ccccc3[C@@H]2N(C)c2ccccc21 (stereo partly specified) | 24.6 | 31.6 | – | 31.3 | 5.14 | 28.7 | 34.5 | 13.2 | 28.2 | 21.3 | 22.7 | > 100 | 59 | 27.4 | 25.9 | 34.3 | 26.8 | 8.73 | 21.5 | 27.8 |
| CCOC(=O)c1c(NC(=O)OC)c(C#N)c2n1CCCCC2 | > 100 | – | > 100 | > 100 | > 100 | 43.9 | > 100 | > 100 | > 100 | > 100 | > 100 | > 100 | > 100 | – | > 100 | > 100 | > 100 | > 100 | > 100 | – |
| C/C(=N/NC(=S)Nc1ccc(Cl)cc1)c1cccc(/C(C)=N\NC(=S)Nc2ccc(Cl)cc2)n1 | 21 | 53.2 | – | 39.4 | 30.7 | 65.5 | > 100 | > 100 | 26.8 | 9.25 | 55.8 | 16.7 | 91.3 | > 100 | 10.6 | 49.2 | 18.6 | 7.25 | > 100 | > 100 |
| Cc1cc(C)c(C(=O)c2nnc3ccccc3c2N)c(C)c1 | 32.2 | > 100 | > 100 | 75.9 | 30.2 | 84 | – | 76.8 | 34.9 | – | 56.3 | > 100 | 74.2 | > 100 | – | 31.9 | 26.8 | > 100 | – | 52.6 |
| Cc1c(C)n(-c2ccccc2)c2nc(S(C)(=O)=O)nc(S(C)(=O)=O)c12 | 2.55 | 30.4 | – | 1.55 | 3.29 | 27.7 | 3.31 | 3.74 | 3.43 | 2.79 | 3.56 | 2.49 | 59.9 | 3.63 | 27 | 4.21 | 27.1 | 2.46 | 3.55 | 3.43 |
| N#Cc1[nH]c(=S)[nH]c1N | > 100 | > 100 | > 100 | > 100 | > 100 | > 100 | > 100 | > 100 | > 100 | > 100 | > 100 | – | > 100 | > 100 | > 100 | > 100 | > 100 | > 100 | > 100 | – |
| N#CC1=C(Nc2ccccc2)SC=C(c2ccccc2)NC1=NCc1ccccc1 | > 100 | > 100 | – | > 100 | > 100 | > 100 | > 100 | – | – | > 100 | > 100 | > 100 | > 100 | > 100 | > 100 | > 100 | > 100 | 59.1 | > 100 | > 100 |
| O=C(O)C1C2C=CC(C2)C1c1ccccc1 (stereo unspecified) | > 100 | > 100 | – | > 100 | > 100 | > 100 | > 100 | > 100 | > 100 | > 100 | > 100 | > 100 | > 100 | > 100 | > 100 | > 100 | > 100 | > 100 | > 100 | > 100 |
| O=C(Oc1ccccc1)N1c2ccccc2[C@@]23O[C@]24CCC[C@H]3C#C/C=C\C#C[C@H]14 | 22.2 | 25 | 25.5 | 25.7 | 28 | 30.5 | 25.9 | 23.2 | 25.6 | – | 36.7 | > 100 | 33.2 | 24.1 | 45.8 | 25.5 | – | 41.1 | 47.8 | 26.9 |
| COc1ccc2c(c1)nc1n2C(c2c(Cl)cccc2Cl)SC1 (stereo unspecified) | > 100 | > 100 | > 100 | > 100 | > 100 | > 100 | > 100 | 85.9 | > 100 | > 37.5 | > 23.6 | > 100 | > 52.5 | > 100 | > 100 | > 74 | > 100 | > 100 | > 100 | – |
| Cc1ccc(-c2n[nH]c(=O)n2/N=C\c2ccc([N+](=O)[O-])cc2)cc1 | > 100 | > 100 | > 100 | > 100 | > 100 | > 100 | > 100 | > 100 | > 100 | > 100 | > 94.2 | > 100 | > 100 | > 100 | > 100 | > 100 | > 100 | > 100 | > 100 | – |
| Cc1nn(C(=O)Cc2ccccc2)c2c1C(c1ccc(Cl)cc1)SC(N)=N2 (stereo unspecified) | > 100 | > 100 | > 100 | > 100 | > 100 | > 100 | > 100 | > 100 | > 100 | > 100 | > 100 | > 100 | – | – | > 100 | – | > 100 | > 100 | > 100 | – |
| COc1cc(N(CCC#N)CCC#N)ccc1/C(N=Nc1ccccc1C)=N\NC(=O)c1ccc(C)cc1 | > 100 | > 100 | > 100 | > 100 | > 100 | > 100 | > 100 | > 100 | > 100 | – | > 100 | > 100 | > 100 | > 100 | – | > 100 | > 100 | – | > 100 | 58.8 |
| CCCCCCCCCCCCC/C=C/[C@@H](O)[C@H](COC1OC(CO)C(OC2OC(CO)C(O)C(OC3(C(=O)O)CC(O)C(NC(C)=O)C(C(O)C(O)CO)O3)C2O)C(O)C1O)N=[N+]=[N-] (stereo partly specified) | > 100 | > 100 | – | > 100 | 33.9 | > 100 | > 100 | 58.5 | 36.6 | > 100 | > 100 | 43.4 | 59.9 | > 100 | 31.9 | 49.7 | 41.6 | – | > 100 | > 100 |
| CN1C(=O)CSC1=S | > 100 | > 100 | – | > 100 | > 100 | – | > 100 | > 100 | > 100 | – | – | > 100 | – | > 100 | > 100 | > 100 | > 100 | > 100 | > 100 | – |
| CC(C)(C)OC(=O)NC(Cc1ccc(OC(C)(C)C)cc1)C(=O)N[C@H]1CCC[C@H]1C(=O)NC(Cc1ccccc1)C(=O)N1CCCC1C(N)=O (stereo partly specified) | > 100 | > 100 | – | > 100 | > 100 | > 100 | > 100 | > 100 | > 100 | > 100 | > 100 | > 100 | > 100 | > 100 | > 100 | > 100 | > 100 | > 100 | > 100 | > 100 |
| COC(=O)[C@]12CCC(C)(C)C[C@H]1[C@H]1C(=O)C=C3[C@@]4(C)C=C(C#N)C(=O)C(C)(C)[C@@H]4CC[C@@]3(C)[C@]1(C)CC2 | 0.415 | 1.29 | 0.194 | 0.078 | 0.122 | 0.295 | 0.0392 | – | – | – | 0.0585 | 1.56 | 0.0337 | 0.194 | 0.103 | 0.187 | 0.109 | 0.141 | 0.152 | – |
| COc1ccc(-n2cnn3c(=O)c4cn[nH]c4nc23)cc1 | > 10 | > 10 | > 10 | – | – | > 10 | – | > 10 | > 10 | > 10 | > 10 | > 10 | – | > 10 | > 10 | – | > 10 | > 10 | > 10 | – |
| COC(=O)c1ccccc1Nc1nc(-c2cccs2)nc2cc(OC)c(OC)cc12 | > 100 | > 100 | > 100 | > 100 | > 100 | > 100 | > 100 | > 100 | > 100 | > 100 | > 100 | > 100 | > 100 | > 100 | 85.9 | > 100 | > 100 | > 100 | 70.2 | – |
| COc1ccc(-c2nc(-c3cc4c(ccc5ccccc54)oc3=O)cs2)cc1 | 82 | > 100 | > 100 | > 100 | > 100 | > 100 | > 100 | > 100 | > 100 | > 100 | > 100 | > 100 | – | > 100 | > 100 | > 100 | > 100 | > 100 | > 100 | – |
